Literature values, collected in patent US9237750B2, “Ornidazole and related compounds for use as herbicides” (RAMOT AT TEL-AVIV UNIVERSITY LTD., priority 2012, dated 2016).

Tested on: ferredoxin-linked NADP+ reduction
Conditions: photosystem II non-operative, ascorbate as electron source, broken spinach chloroplasts, DCPIP; cited from earlier work

Question: For `Cc1ncc([N+](=O)[O-])n1CCO` [Metronidazole, 1-β-hydroxyethyl-2-methyl-5-nitroimidazole], which “inhibition of ferredoxin-linked NADP+ reduction” value is on record?
Answer: Its value is “potent inhibitor”.
